Results: ChEMBL document CHEMBL1201862, “PubChem BioAssay data set” (2004)
Each block holds one molecule with its values, some of them ahead of it. Calls of active or inactive are those of the source.

Key:
[1] = CEM21 lymphoblast cell cytotoxicity, dose response, cytotoxicity control for viral fusion inhibitor project, CellTiter-Glo luminescence, cherry-picked (AID 652042); assay type: functional, cell-based;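 note: potency for signal decrease meaning cytotoxicity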
[2] = inhibitors of PGC1a acetylation in cells, dose response, cell-based, cherry-picked samples (AID 720514); assay type: functional;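 note: potency may reflect raised or lowered acetylation signal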
[3] = P. falciparum Dd2 growth inhibitors, dose response, SYBR Green, cherry-picked samples (AID 1159567); assay type: functional, cell-based
[4] = inhibitors of HIV Env-driven cell fusion, dose response, cherry-pick (AID 652057); assay type: functional, cell-based
[5] = A2780 ovarian cancer cell cytotoxicity, dose response, cytotoxicity control, plate reader, dry powder samples (AID 743046); assay type: functional, cell-based
Paired box protein Pax-8 = Paired box protein Pax-8 (Homo sapiens, UniProt Q06710); assay: inhibitors of PAX8-driven TPO luciferase reporter, dose response, RMG-I cells, cherry-pick (AID 687027); assay type: functional, cell-based;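 note: luciferase reporter driven by Pax8 target thyroperoxidase promoter measured by SteadyGlo luminescence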
[6] = NIH:OVCAR-3 ovarian cancer cell cytotoxicity, dose response, PAX8 inhibitor project, plate reader, dry powder samples (AID 743044); assay type: functional, cell-based
[7] = HEK293T cytotoxicity, dose response, cytotoxicity control for miR-122 modulator project, cell-based, inhibitor set, cherry-pick, set 2 (AID 720697); assay type: functional
[8] = T. cruzi growth inhibition in host cells, dose response, cell-based, plate reader, dry powder, set 2 (AID 652275); assay type: functional
[9] = MITF Orthogonal Assay: SK-MEL-5 CTG Assay Measured in Cell-Based System Using Plate Reader - 2084-02_Inhibitor_Dose_DryPowder_Activity_Set7.; assay type: functional
[10] = TRPM1 promoter luciferase reporter signal decrease, dose response, MITF inhibitor project, cell-based, SK-MEL-5, dry powder, set 8 (AID 624430); assay type: functional
[11] = MITF: Counter assay: A375 proliferation Measured in Cell-Based System Using Plate Reader - 2084-03_Inhibitor_Dose_DryPowder_Activity_Set8.; assay type: functional; settings: A-375
[12] = target: T1, Oxysterols receptor LXR-beta (Homo sapiens, UniProt P55055); assay type: functional, cell-based;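 note: agonist activity at LXR measured by a cell-based luminescence readout across a dose range, run as a counterscreen for daf-12 agonists; HEK293 cells with Gal4-LXR fusion and GAL4-driven luciferase reporter; potency for activation of Gal4-LXR reporter so compounds are agonists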
T1 sequence (P55055 whole entry): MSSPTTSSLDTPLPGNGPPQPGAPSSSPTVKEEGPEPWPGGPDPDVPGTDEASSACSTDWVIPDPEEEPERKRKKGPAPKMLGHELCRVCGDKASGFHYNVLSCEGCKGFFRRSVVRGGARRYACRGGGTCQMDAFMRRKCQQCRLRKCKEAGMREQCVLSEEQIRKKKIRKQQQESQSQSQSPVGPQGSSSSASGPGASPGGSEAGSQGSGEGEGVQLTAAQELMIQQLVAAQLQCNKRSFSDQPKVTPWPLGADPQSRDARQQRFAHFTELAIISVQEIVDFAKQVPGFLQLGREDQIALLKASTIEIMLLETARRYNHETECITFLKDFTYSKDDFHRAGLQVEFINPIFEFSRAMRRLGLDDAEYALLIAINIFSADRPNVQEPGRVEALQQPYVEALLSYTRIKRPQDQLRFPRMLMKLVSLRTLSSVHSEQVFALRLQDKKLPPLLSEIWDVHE

[13] = cytotoxicity in OVCAR8 ovarian cancer cells, dose response, PAX8 project, cell-based, plate reader, dry powder samples (AID 743197); assay type: functional; settings: OVCAR-8
[14] = target: Disintegrin and metalloproteinase domain-containing protein 17 (Homo sapiens, UniProt P78536); assay: ADAM17 protease inhibitors, dose response, counter-screen for ADAM10 exosite inhibitor project, biochemical, quenched FRET substrate (AID 743253)
Albumin = Albumin (Bos taurus, UniProt P02769); assay: Counterscreen for inhibitors of T-cell receptor (TCR)-CD3 interaction: Fluorescence-based biochemical high throughput dose response assay to identify inhibitors of T-cell receptor (TCR)-CD3 interaction using a TAMRA-labeled BSA probe.; assay type: functional
[15] = ADAM10 inhibitors, peptide cleavage, dose response, biochemical, QFRET (AID 743254);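 note: ADAM10 enzyme with the DM2 quenched FRET peptide as substrate; EDANS fluorescence gain as the protease cuts the substrate; inhibitor potency against ADAM10 proteolytic activity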

Paired box protein Pax-8, sequence (Q06710 whole entry): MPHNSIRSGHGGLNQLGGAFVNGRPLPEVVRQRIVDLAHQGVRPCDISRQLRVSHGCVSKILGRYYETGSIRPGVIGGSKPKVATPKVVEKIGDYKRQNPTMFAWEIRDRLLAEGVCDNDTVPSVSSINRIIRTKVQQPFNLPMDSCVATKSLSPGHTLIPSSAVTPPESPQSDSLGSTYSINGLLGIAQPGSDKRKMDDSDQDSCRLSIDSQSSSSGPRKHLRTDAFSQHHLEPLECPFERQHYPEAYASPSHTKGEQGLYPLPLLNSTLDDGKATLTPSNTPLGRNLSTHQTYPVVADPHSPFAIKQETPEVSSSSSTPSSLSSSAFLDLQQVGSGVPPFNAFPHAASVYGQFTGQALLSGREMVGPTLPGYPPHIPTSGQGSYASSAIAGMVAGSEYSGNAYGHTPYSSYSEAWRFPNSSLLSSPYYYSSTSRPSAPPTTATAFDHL
Disintegrin and metalloproteinase domain-containing protein 17, sequence (P78536 whole entry, the tested form may be a part): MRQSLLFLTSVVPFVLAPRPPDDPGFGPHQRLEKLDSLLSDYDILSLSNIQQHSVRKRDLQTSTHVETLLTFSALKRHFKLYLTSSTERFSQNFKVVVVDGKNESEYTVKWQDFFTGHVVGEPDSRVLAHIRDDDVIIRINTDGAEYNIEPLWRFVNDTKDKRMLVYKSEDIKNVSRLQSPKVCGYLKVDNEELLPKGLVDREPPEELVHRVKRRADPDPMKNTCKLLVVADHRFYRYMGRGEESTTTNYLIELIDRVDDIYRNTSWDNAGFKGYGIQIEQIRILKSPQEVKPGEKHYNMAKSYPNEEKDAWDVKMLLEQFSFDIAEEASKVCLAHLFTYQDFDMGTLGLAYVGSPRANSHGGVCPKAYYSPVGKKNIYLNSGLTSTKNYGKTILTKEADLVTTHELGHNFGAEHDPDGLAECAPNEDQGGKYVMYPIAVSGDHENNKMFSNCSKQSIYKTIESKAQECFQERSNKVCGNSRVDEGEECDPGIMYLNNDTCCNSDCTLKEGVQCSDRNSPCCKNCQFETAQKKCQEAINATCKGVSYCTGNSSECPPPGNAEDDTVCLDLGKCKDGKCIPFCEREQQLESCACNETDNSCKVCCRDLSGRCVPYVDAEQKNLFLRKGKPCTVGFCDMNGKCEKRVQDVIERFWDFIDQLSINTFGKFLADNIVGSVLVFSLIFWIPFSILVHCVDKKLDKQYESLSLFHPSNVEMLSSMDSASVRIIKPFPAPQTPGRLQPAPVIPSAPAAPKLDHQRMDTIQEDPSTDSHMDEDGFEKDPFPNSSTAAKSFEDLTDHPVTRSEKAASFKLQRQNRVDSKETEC
Albumin, sequence (P02769 whole entry): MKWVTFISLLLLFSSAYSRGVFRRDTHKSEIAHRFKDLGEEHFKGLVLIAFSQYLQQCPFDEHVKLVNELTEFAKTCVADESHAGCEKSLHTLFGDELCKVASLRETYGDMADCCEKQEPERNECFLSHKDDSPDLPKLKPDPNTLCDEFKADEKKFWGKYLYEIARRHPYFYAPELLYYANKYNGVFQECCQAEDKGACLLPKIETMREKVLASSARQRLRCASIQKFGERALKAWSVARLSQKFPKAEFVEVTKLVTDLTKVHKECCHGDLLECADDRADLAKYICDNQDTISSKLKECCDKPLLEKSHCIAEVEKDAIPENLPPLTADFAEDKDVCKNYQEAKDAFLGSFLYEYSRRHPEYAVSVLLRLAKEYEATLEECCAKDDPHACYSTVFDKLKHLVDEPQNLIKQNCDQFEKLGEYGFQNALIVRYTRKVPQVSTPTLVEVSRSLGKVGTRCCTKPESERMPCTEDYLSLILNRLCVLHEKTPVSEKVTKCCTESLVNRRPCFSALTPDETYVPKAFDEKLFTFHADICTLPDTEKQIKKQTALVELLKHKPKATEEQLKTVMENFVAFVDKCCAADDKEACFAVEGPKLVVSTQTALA

Structure (SMILES): Cc1ccc(-c2ccc3c(c2)O[C@@H](CN(C)C(=O)C2CCCCC2)[C@H](C)CN([C@H](C)CO)S3(=O)=O)cc1
AC50 [1]: 22 µM (active) | AC50 [2]: 15 µM (active) | AC50 [3]: 3.07 µM (active) | AC50 [4]: 20.7 µM (active)

Structure (SMILES): C[C@H](CO)N1C[C@H](C)[C@@H](CN(C)S(=O)(=O)c2ccccc2)OCCCC[C@H](C)Oc2ccc(NS(=O)(=O)c3ccc(Cl)cc3)cc2C1=O
AC50 [5]: 49.8 µM (active) | AC50 (Paired box protein Pax-8): 5.23 µM (active) | AC50 [6]: 32.2 µM (active)

Structure (SMILES): CCNC(=O)C[C@@H]1CC[C@H]2[C@H](COc3ccc(NC(=O)c4cccc(C(F)(F)F)c4)cc3C(=O)N2C)O1
AC50 [7]: 3.05 µM (active)

Structure (SMILES): COc1cccc(-c2ccc([C@H]3[C@H](CO)N4CCCCN(CC5CCOCC5)C[C@@H]34)cc2)c1
AC50 [8]: 1.88 µM (active)

Structure (SMILES): CC1=C(Nc2ccc(Cl)cc2)C(=O)c2ccccc2C1=O
AC50 [9]: 0.802 µM (active) | AC50 [10]: 40.7 µM (active) | AC50 [11]: > 70 µM (inactive)

Structure (SMILES): OC[C@H]1[C@H](c2ccc(-c3ccccc3)cc2)[C@@H]2CN(Cc3cncnc3)CCCCN12
AC50 [8]: 0.185 µM (active)

EC50 [12]: > 67.5 µM (inactive)
Structure (SMILES): CCCn1/c(=N/C(=O)c2ccco2)c(C(=O)OCC)cc2c(=O)n3ccccc3nc21

Structure (SMILES): COc1ccc(NC(=O)N2CCCCN3[C@@H](CO)[C@@H](c4ccc(C5=CCCC5)cc4)[C@@H]3C2)cc1
AC50 [5]: 52.9 µM (active) | AC50 [13]: 64.1 µM (active) | AC50 [6]: 41.6 µM (active)

IC50 [14]: > 69.5 µM (inactive) | IC50 (Albumin): > 94.1 µM (inactive) | IC50 [15]: > 69.5 µM (inactive)
Structure (SMILES): COc1cc(/C=N/NC(=O)COc2ccc(Cl)cc2)ccc1OS(=O)(=O)c1ccc(C)cc1
